From patent publication US20230091225A1, “Bifunctional chimeric heterocyclic compounds for targeted degradation of androgen receptors and use thereof” (HINOVA PHARMACEUTICALS INC., priority 2019, published 2023)
Read-outs that look alike come from different tables or passages of the source.

Molecular target: T1, androgen receptor (AR) (Homo sapiens, UniProt P10275)
T1 sequence (P10275 1-920): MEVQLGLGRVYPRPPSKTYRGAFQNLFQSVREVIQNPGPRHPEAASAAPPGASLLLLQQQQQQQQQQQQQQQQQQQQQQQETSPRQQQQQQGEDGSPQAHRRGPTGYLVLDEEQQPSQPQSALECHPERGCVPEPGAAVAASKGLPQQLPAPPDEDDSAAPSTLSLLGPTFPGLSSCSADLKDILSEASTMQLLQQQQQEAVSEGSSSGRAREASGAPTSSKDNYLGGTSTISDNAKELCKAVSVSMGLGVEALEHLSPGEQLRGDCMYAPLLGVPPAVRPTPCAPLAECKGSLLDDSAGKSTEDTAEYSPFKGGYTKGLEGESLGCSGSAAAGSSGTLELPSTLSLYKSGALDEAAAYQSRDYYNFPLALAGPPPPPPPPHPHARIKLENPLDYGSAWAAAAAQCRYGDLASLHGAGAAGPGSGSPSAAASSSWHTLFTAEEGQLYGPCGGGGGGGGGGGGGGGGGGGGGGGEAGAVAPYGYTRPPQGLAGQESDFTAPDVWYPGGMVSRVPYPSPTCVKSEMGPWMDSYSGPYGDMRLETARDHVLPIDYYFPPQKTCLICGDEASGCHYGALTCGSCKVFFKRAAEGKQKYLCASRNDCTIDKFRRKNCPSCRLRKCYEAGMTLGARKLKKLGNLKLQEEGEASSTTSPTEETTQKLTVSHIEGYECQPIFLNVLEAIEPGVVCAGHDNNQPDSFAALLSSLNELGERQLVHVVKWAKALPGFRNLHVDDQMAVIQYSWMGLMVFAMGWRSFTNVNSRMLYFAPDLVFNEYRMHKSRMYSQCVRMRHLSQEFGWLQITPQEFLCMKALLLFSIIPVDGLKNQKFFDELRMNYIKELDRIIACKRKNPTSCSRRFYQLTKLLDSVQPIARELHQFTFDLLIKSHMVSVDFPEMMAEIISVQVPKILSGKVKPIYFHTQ
Assay: Degradation of androgen receptor (AR) protein in VCaP cells by ELISA
Format: cell-based
Conditions: for Dmax: VCaP

[1] = AR degradation, VCaP cells, 16 h, ELISA, Table 3-2, read-out: DC50
[2] = AR degradation, VCaP cells, 16 h, ELISA, Table 3-1, read-out: DC50
[3] = AR degradation, VCaP cells, 16 h, ELISA, Table 3-1, read-out: Dmax (%)
[4] = AR degradation, VCaP cells, 16 h, ELISA, Table 3-2, read-out: Dmax (%)
[5] = AR degradation, VCaP cells, 16 h, ELISA, Table 3-1

Compound	DC50 [2]	Dmax [3]	also measured
N#Cc1ccc(O[C@H]2CC[C@H](NC(=O)c3ncc(N4CC5(CCN(C6CCN(c7ccc8c(c7)C(=O)N(C7CCC(=O)NC7=O)C8=O)CC6)CC5)C4)cn3)CC2)cc1Cl (stereo partly shown) [Compound 106, N-((1r,4r)-4-(3-chloro-4-cyanophenoxy)cyclohexyl)-5-(7-(1-(2-(2,6-dioxopiperidin-3-yl)-1,3-dioxoisoindolin-5-yl)piperidine-4-yl)-2,7-diazaspiro[3.5]nonan-2-yl)pyrimidine-2-carboxamide]	–	–	DC50 [1]: > 300 nM; Dmax: < 40%
N#Cc1ccc(O[C@H]2CC[C@H](NC(=O)c3ccc(N4CCC5(CC4)CN(CC4CCN(c6ccc7c(c6)C(=O)N(C6CCC(=O)NC6=O)C7=O)CC4)C5)nn3)CC2)cc1Cl (stereo partly shown) [Compound 190, N-((1r,4r)-4-(3-chloro-4-cyanophenoxy)cyclohexyl)-6-(2-((1-(2-(2,6-dioxopiperidin-3-yl)-1,3-dioxoisoindolin-5-yl)piperidine-4-yl)methyl)-2,7-diazaspiro[3.5]nonan-7-yl)pyridazine-3-formamide]	< 10 nM	> 80%	–
N#Cc1ccc(O[C@H]2CC[C@H](NC(=O)c3ccc(N4CCC(CN5CCC6(CC5)CN(c5ccc7c(c5)C(=O)N(C5CCC(=O)NC5=O)C7=O)C6)CC4)nn3)CC2)cc1 (stereo partly shown) [Compound 131, N-((1r,4r)-4-(4-cyanophenoxy)cyclohexyl)-6-(4-((2-(2-(2,6-dioxopiperidin-3-yl)-1,3-dioxoisoindolin-5-yl)-2,7-diazaspiro[3.5]nonan-7-yl)methyl)piperidin-1-yl)pyridazine-3-carboxamide]	–	–	DC50: 10 to 100 nM; Dmax: 60 to 80%
N#Cc1ccc(O[C@H]2CC[C@H](NC(=O)c3cn([C@H]4CC[C@H](CN5CCC6(CC5)CN(c5ccc7c(c5)C(=O)N(C5CCC(=O)NC5=O)C7=O)C6)CC4)nn3)CC2)cc1Cl (stereo partly drawn) [Compound 114, N-((1r,4R)-4-(3-chloro-4-cyanophenoxy)cyclohexyl)-1-((1r,4R)-4-((2-(2-(2,6-dioxopiperidin-3-yl)-1,3-dioxoisoindolin-5-yl)-2,7-diazaspiro[3.5]nonan-7-yl)methyl)cyclohexyl)-1H-1,2,3-triazole-4-carboxamide]	< 10 nM	> 80%	–
CCOc1cc(O[C@H]2C(C)(C)[C@H](N3Cc4nc(C#C[C@H]5CC[C@H](N6CCN(c7ccc8c(c7)C(=O)N(C7CCC(=O)NC7=O)C8=O)CC6)CC5)ccc4C3=O)C2(C)C)ccc1C#N (stereo partly shown) [Compound 430]	–	–	DC50 [1]: 100 to 300 nM; Dmax [4]: 60 to 80%
N#Cc1ccc(O[C@H]2CC[C@H](NC(=O)c3cnc(N4CCC(N5CC6(CCN(c7cc8c(cc7F)C(=O)N(C7CCC(=O)NC7=O)C8=O)CC6)C5)CC4)cn3)CC2)cc1C(F)(F)F (stereo partly shown) [Compound 236, N-((1r,4r)-4-(4-cyano-3-(trifluoromethyl)phenoxy)cyclohexyl)-5-(4-(7-(2-(2,6-dioxopiperidin-3-yl)-6-fluoro-1,3-dioxoisoindolin-5-yl)-2,7-diazaspiro[3.5]nonan-2-yl)piperidin-1-yl)pyrazine-2-carboxamide]	< 10 nM	> 80%	–
N#Cc1ccc(O[C@H]2CC[C@H](NC(=O)c3ccc(N4CC5(CCN(CC6CCN(c7ccc8c(c7)C(=O)N(C7CCC(=O)NC7=O)C8=O)CC6)CC5)C4)cc3)CC2)cc1Cl (stereo partly shown) [Compound 194, N-((1r,4r)-4-(3-chloro-4-cyanophenoxy)cyclohexyl)-4-(7-((1-(2-(2,6-dioxopiperidin-3-yl)-1,3-dioxoisoindolin-5-yl)piperidine-4-yl)methyl)-2,7-diazaspiro[3.5]nonan-2-yl)benzamide]	< 10 nM	> 80%	–
N-((1r,4r)-4-(3-chloro-4-cyanophenoxy)cyclohexyl)-6-(4-((6-(2-(2,6-dioxopiperidin-3-yl)-6-fluoro-1,3-dioxoisoindolin-5-yl)-2,6-diazaspiro[3.3]heptan-2-yl)methyl)piperidin-1-yl)pyrazine-2-amide [Compound 123]	–	–	Dmax (%): ++++ (key: A: >80%; B: 79%-50%; C: 49%-25%; D: <25%); DC50 (read-out: DC50): < 10 nM
CC1(C)[C@H](Oc2ccc(C#N)c(Cl)c2)C(C)(C)[C@H]1N1Cc2nc(C#CC3CC(N4CC5CN(c6cc7c(cc6F)C(=O)N(C6CCC(=O)NC6=O)C7=O)CC5C4)C3)ccc2C1=O (stereo partly shown) [Compound 360]	10 to 100 nM	60 to 80%	–
4-((1r,3r)-3-(2-((1r,4r)-4-(4-(2,6-dioxopiperidin-3-yl)-1,3-dioxoisoindolin-5-yl)piperazin-1-2-methoxybenzonitrile [Compound 400]	–	–	Dmax (%): ++++ (key: A: >80%; B: 79%-50%; C: 49%-25%; D: <25%); DC50 (read-out: DC50): < 10 nM
N#Cc1ccc(OC2CCC(NC(=O)c3cn(C4CCC(CN5CCC6(CC5)CN(c5ccc7c(c5)C(=O)N(C5CCC(=O)NC5=O)C7=O)C6)CC4)cn3)CC2)cc1Cl [Compound 113, N-((1r,4R)-4-(3-chloro-4-cyanophenoxy)cyclohexyl)-1-((1r,4R)-4-((2-(2-(2,6-dioxopiperidin-3-yl)-1,3-dioxoisoindolin-5-yl)-2,7-diazaspiro[3.5]nonan-7-yl)methyl)cyclohexyl)-1H-imidazole-4-formamide]	–	–	Dmax (%): ++++ (key: A: >80%; B: 79%-50%; C: 49%-25%; D: <25%); DC50 (read-out: DC50): < 10 nM
N#Cc1ccc(OC2CCC(NC(=O)c3ncn(C4CCC(CN5CCC6(CC5)CN(c5cc7c(cc5F)C(=O)N(C5CCC(=O)NC5=O)C7=O)C6)CC4)n3)CC2)cc1Cl [Compound 85, N-((1r,4R)-4-(3-chloro-4-cyanophenoxy)cyclohexyl)-1-((1r,4R)-4-((2-(2,6-dioxopiperidin-3-yl)-6-fluoro-1,3-dioxoisoindolin-5-yl)-2,7-diazaspiro[3.5]nonan-7-yl)methyl)cyclohexyl)-1H-1,2,4-triazole-3-formamide]	10 to 100 nM	–	Dmax (%) [5]: ++++ (>80%)
N#Cc1ccc(OC2CCC(NC(=O)c3ncn(C4CCC(CN5CCC6(CC5)CN(c5ccc7c(c5)C(=O)N(C5CCC(=O)NC5=O)C7=O)C6)CC4)n3)CC2)cc1Cl [Compound 84, N-((1r,4R)-4-(3-chloro-4-cyanophenoxy)cyclohexyl)-1-(1r,4R)-4-((2-(2-(2,6-dioxopiperidin-3-yl)-1,3-dioxoisoindolin-5-yl)-2,7-diazaspiro[3.5]nonan-7-yl)methyl)cyclohexyl)-1H-1,2,4-triazole-3-carboxamide]	< 10 nM	–	Dmax (%) [5]: ++++ (>80%)
N#Cc1ccc(O[C@H]2CC[C@H](NC(=O)c3ccc(N4CC5CC4CN5C[C@H]4[C@@H]5CN(c6cc7c(cc6F)C(=O)N(C6CCC(=O)NC6=O)C7=O)C[C@@H]54)nn3)CC2)cc1Cl (stereo partly shown) [Compound 237]	100 to 300 nM	40 to 60%	–
CC1(C)[C@H](Oc2ccc(C#N)c(Cl)c2)C(C)(C)[C@H]1N1Cc2nc(C#CC3CCC(N4CCC5(CCN(c6ccc7c(c6)C(=O)N(C6CCC(=O)NC6=O)C7=O)C5)C4)CC3)ccc2C1=O (stereo partly shown) [Compound 365, 2-Chloro-4-((1r,3r)-3-(2-((4-(7-(2-(2,6-dioxopiperidin-3-yl)-1,3-dioxoisoindolin-5-yl)-2,7-Diazaspiro[4.4]nonan-2-yl)cyclohexyl)ethynyl)-5-oxo-5,7-dihydro-6H-pyrrolo[3,4-b]pyridin-6-yl)-2,2,4,4-tetramethylcyclobutoxy) benzonitrile]	10 to 100 nM	–	Dmax (%) [5]: ++++ (>80%)
N#Cc1ccc(O[C@H]2CC[C@H](NC(=O)c3cnc(N4CCC(CN5CCC6(C5)CN(c5cc7c(cc5F)C(=O)N(C5CCC(=O)NC5=O)C7=O)C6)CC4)cn3)CC2)cc1Cl (stereo partly shown) [Compound 186, N-((1r,4r)-4-(3-chloro-4-cyanophenoxy)cyclohexyl)-5-(4-((2-(2-(2,6-dioxopiperidin-3-yl)-6-fluoro-1,3-dioxoisoindolin-5-yl)-2,6-diazaspiro[3.4]octan-6-yl)methyl)piperidin-1-yl)pyrazine-2-carboxamide]	< 10 nM	> 80%	–
N#Cc1ccc(O[C@H]2CC[C@H](NC(=O)c3cnc(N4CCC(CN5CCC6(CC5)CN(c5ccc7c(c5)C(=O)N(C5CCC(=O)NC5=O)C7=O)C6)CC4)nn3)CC2)cc1C(F)(F)F (stereo partly shown) [Compound 420, N-((1r,4r)-4-(4-cyano-3-trifluoromethyl-phenoxy)cyclohexyl)-3-(4-((2-(2-(2,6-dioxopiperidin-3-yl)-1,3-dioxoisoindolin-5-yl)-2,7-diazaspiro[3.5]nonane-7-yl)methyl)piperidin-1-yl)-1,2,4-triazine-6-formamide]	–	–	DC50 [1]: < 10 nM; Dmax [4]: > 80%
